Data: patent publication US6747033B2, “Fungicidal triazolopyrimid-7-ylideneamines” (BASF Aktiengesellschaft, priority 2000, dated 2004)
Where two headings read alike, the source gives them in different places.

Legend:
Venturia inaequalis = assay: In vivo fungicidal activity, Apple Scab (AS); note: ranges in brackets are in %
Plasmopara viticola = assay: In vivo fungicidal activity, Grape downy mildew (GDM); note: ranges in brackets are in %
Botrytis cinera = assay: In vivo fungicidal activity, Pepper Botrytis (PB); note: ranges in brackets are in %
[1] = system: Pyricularia grisea f. sp. oryzae; format: in vivo; settings: Rice Blast
Cercospora beticola = assay: In vivo fungicidal activity, Sugar Beet Cercospora (SBC); note: ranges in brackets are in %
Alternara solani = assay: In vivo fungicidal activity, Tomato early blight (TEB); note: ranges in brackets are in %
Blumeria graminis = assay: In vivo fungicidal activity, Wheat powdery mildew (WPM); note: ranges in brackets are in %
[2] = system: Pseudocercosporella herpotrichoides; assay: In vitro fungicidal activity, Cereal eye spot (PSDCHE); format: cell-based; set-up: key: 0: None; 3: slight; 5: moderate; 7: severe; 9: complete; settings: 3-7 days of incubation
Protocol: (§1) Test compounds are dissolved in acetone to give concentrations of 25, 10 and 1 ppm and are added to individual cell Walls (24-cell-well plates, Corning), which were previously filled with a suspension of ground plates, Corning), which were previously filled with a suspension of ground fungal mycelium in a chemically defined growth medium. After 3-7 days of incubation, inhibition of […] growth is recorded using the following scale: The data obtained are shown in Table II. [table]

Pythium ultimum = assay: In vitro fungicidal activity, Fruit rot (PYTHUL); format: cell-based; set-up: key: 0: None; 3: slight; 5: moderate; 7: severe; 9: complete; settings: 3-7 days of incubation
Protocol: as §1

Rhizoctonia solani = assay: In vitro fungicidal activity, Rice sheath blight (RHIZSO); format: cell-based; set-up: key: 0: None; 3: slight; 5: moderate; 7: severe; 9: complete; settings: 3-7 days of incubation
Protocol: as §1

| Compound | AS disease control rating (Venturia inaequalis; 12.5 ppm spray) | AS disease control rating (Venturia inaequalis; 50 ppm spray) | AS disease control rating (Venturia inaequalis; 200 ppm spray) | GDM disease control rating (Plasmopara viticola; 12.5 ppm spray) | GDM disease control rating (Plasmopara viticola; 50 ppm spray) | GDM disease control rating (Plasmopara viticola; 200 ppm spray) | PB disease control rating (Botrytis cinera; 12.5 ppm spray) | PB disease control rating (Botrytis cinera; 50 ppm spray) | PB disease control rating (Botrytis cinera; 200 ppm spray) | RB disease control rating ([1]; 12.5 ppm spray) | RB disease control rating ([1]; 50 ppm spray) | RB disease control rating ([1]; 200 ppm spray) | SBC disease control rating (Cercospora beticola; 12.5 ppm spray) | SBC disease control rating (Cercospora beticola; 50 ppm spray) | SBC disease control rating (Cercospora beticola; 200 ppm spray) | TEB disease control rating (Alternara solani; 12.5 ppm spray) | TEB disease control rating (Alternara solani; 50 ppm spray) | TEB disease control rating (Alternara solani; 200 ppm spray) | WPM disease control rating (Blumeria graminis; 12.5 ppm spray) | WPM disease control rating (Blumeria graminis; 50 ppm spray) | also measured |
| --- | --- | --- | --- | --- | --- | --- | --- | --- | --- | --- | --- | --- | --- | --- | --- | --- | --- | --- | --- | --- | --- |
| Cn1c(Cl)c(-c2c(F)cc(F)cc2F)c(=NCC(F)(F)F)n2ncnc12 [Example 1A, N-(5-chloro-4-methyl-6-(2,4,6-trifluorophenyl)-4H[1,2,4]triazolo[1,5-α]pyrimidin-7-ylidene]-N-(2,2,2-trifluoroethyl)-amine] | 0 (0) | 6 (75-89) | 9 (100) | 5 (60-74) | 6 (75-89) | 4 (45-59) | 0 (0) | 5 (60-74) | 0 (0) | 0 (0) | 0 (0) | 6 (75-89) | 0 (0) | 6 (75-89) | 8 (96-99) | 0 (0) | 0 (0) | 3 (30-44) | 0 (0) | 7 (90-95) | WPM disease control rating (Blumeria graminis; 200 ppm spray): 8 (96-99); PSDCH inhibition of mycelial growth rating ([2]; 1 ppm): 0; PSDCH inhibition of mycelial growth rating ([2]; 10 ppm): 0; PSDCH inhibition of mycelial growth rating ([2]; 25 ppm): 0; PYTHU inhibition of mycelial growth rating (Pythium ultimum; 1 ppm): 0; PYTHU inhibition of mycelial growth rating (Pythium ultimum; 10 ppm): 0; PYTHU inhibition of mycelial growth rating (Pythium ultimum; 25 ppm): 0; RHIZSO inhibition of mycelial growth rating (Rhizoctonia solani; 1 ppm): 5; RHIZSO inhibition of mycelial growth rating (Rhizoctonia solani; 10 ppm): 7; RHIZSO inhibition of mycelial growth rating (Rhizoctonia solani; 25 ppm): 7 |
| CCn1cnn2c(=NC(C)C(F)(F)F)c(-c3c(F)cc(F)cc3F)c(Cl)nc12 (stereo not drawn) [Example 10] | 0 (0) | 0 (0) | 6 (75-89) | 0 (0) | 0 (0) | 0 (0) | 4 (45-59) | 0 (0) | 0 (0) | 0 (0) | 4 (45-59) | 6 (75-89) | 3 (30-44) | 6 (75-89) | 6 (75-89) | 0 (0) | 4 (45-59) | 5 (60-74) | 0 (0) | 0 (0) | WPM disease control rating (Blumeria graminis; 200 ppm spray): 0 (0); PSDCH inhibition of mycelial growth rating ([2]; 1 ppm): 0; PSDCH inhibition of mycelial growth rating ([2]; 10 ppm): 0; PSDCH inhibition of mycelial growth rating ([2]; 25 ppm): 0; PYTHU inhibition of mycelial growth rating (Pythium ultimum; 1 ppm): 0; PYTHU inhibition of mycelial growth rating (Pythium ultimum; 10 ppm): 3; PYTHU inhibition of mycelial growth rating (Pythium ultimum; 25 ppm): 5; RHIZSO inhibition of mycelial growth rating (Rhizoctonia solani; 1 ppm): 0; RHIZSO inhibition of mycelial growth rating (Rhizoctonia solani; 10 ppm): 5; RHIZSO inhibition of mycelial growth rating (Rhizoctonia solani; 25 ppm): 5 |
| CCCOc1cc(F)c(-c2c(Cl)nc3n(CCC)cnn3c2=NC(C)C(F)(F)F)c(F)c1 (stereo not drawn) [Example 9] | 0 (0) | 6 (75-89) | 6 (75-89) | 5 (60-74) | 3 (30-44) | 3 (30-44) | 2 (15-29) | 1 (1-14) | 2 (15-29) | 0 (0) | 3 (30-44) | 4 (45-59) | 8 (96-99) | 8 (96-99) | 8 (96-99) | 6 (75-89) | 8 (96-99) | 9 (100) | 2 (15-29) | 6 (75-89) | WPM disease control rating (Blumeria graminis; 200 ppm spray): 7 (90-95); PSDCH inhibition of mycelial growth rating ([2]; 1 ppm): 3; PSDCH inhibition of mycelial growth rating ([2]; 10 ppm): 3; PSDCH inhibition of mycelial growth rating ([2]; 25 ppm): 5; PYTHU inhibition of mycelial growth rating (Pythium ultimum; 1 ppm): 0; PYTHU inhibition of mycelial growth rating (Pythium ultimum; 10 ppm): 0; PYTHU inhibition of mycelial growth rating (Pythium ultimum; 25 ppm): 0; RHIZSO inhibition of mycelial growth rating (Rhizoctonia solani; 1 ppm): 7; RHIZSO inhibition of mycelial growth rating (Rhizoctonia solani; 10 ppm): 7; RHIZSO inhibition of mycelial growth rating (Rhizoctonia solani; 25 ppm): 7 |
